Holding throughout (type): cell-based
One data set concerns the target hMC4R (Homo sapiens (Human), UniProt P32245). As to the kind of experiment: Transactivation test melanocortin receptors (CRE-Luc, HEK293), hMC4R. To be noted: HEK293, pCRE-Luc, agonist mode; read-out: EC50 hMC4-R. As for the experimental part: The aim of this example is to show the Melanocortine receptor selectivity of compound 1 and compound 6 of the present invention: • Cells: The lines HEK293 are transfected with vectors pCRE-Luc and hMC1R or hMC4R. The cells are cultured at 37° C. and 5% CO2, in DMEM medium supplemented with 10% foetal calf serum. • Test principle: In the presence of an activator (agonist), the melanocortin receptor will activate the cAMP pathway, which, via the vector CRE-Luc, will lead to the synthesis of luciferase. After addition of a lysis buffer containing a luminescent luciferase substrate, the luminescence proportional to the degree of activation or inhibition of receptor may be measured. • Testing the products: The products are dissolved at 10 mM in DMSO. They are tested as a response dose at 0.1% of DMSO final. The range comprising 10 points and a zero starts at 10 μM with four-fold dilutions. To test agonists, the products are tested alone. To determine the antagonist behaviour, the products of interest are tested in the presence of 1 nM NDP-MSH (reference agonist). […] After adding the lysis buffer containing luciferin, the plates are read in a Top-Count machine. […] An EC50 is calculated for each product using the XLFit software.

Another data set addresses hMC1R (Homo sapiens (Human), UniProt Q01726). Briefly: Transactivation test melanocortin receptors (CRE-Luc, HEK293), hMC1R. To be noted: for EC50: HEK293, pCRE-Luc, agonist mode, read-out: EC50 hMC1-R. As for the experimental part: The aim of this example is to show the Melanocortine receptor selectivity of compound 1 and compound 6 of the present invention: • Cells: The lines HEK293 are transfected with vectors pCRE-Luc and hMC1R or hMC4R. The cells are cultured at 37° C. and 5% CO2, in DMEM medium supplemented with 10% foetal calf serum. • Test principle: In the presence of an activator (agonist), the melanocortin receptor will activate the cAMP pathway, which, via the vector CRE-Luc, will lead to the synthesis of luciferase. After addition of a lysis buffer containing a luminescent luciferase substrate, the luminescence proportional to the degree of activation or inhibition of receptor may be measured. • Testing the products: The products are dissolved at 10 mM in DMSO. They are tested as a response dose at 0.1% of DMSO final. The range comprising 10 points and a zero starts at 10 μM with four-fold dilutions. To test agonists, the products are tested alone. To determine the antagonist behaviour, the products of interest are tested in the presence of 1 nM NDP-MSH (reference agonist). The cells are inoculated at a rate of 5000 cells per well (384-well plate) in serum-free DMEM medium and incubated overnight at 37° C. and 5% CO2. • The products and the reference ligand (NDP-MSH) are added the following day and the plates are reincubated for 6 hours at 37° C. and 5% CO2. After adding the lysis buffer containing luciferin, the plates are read in a Top-Count machine. The results are normalized as percentage of activity using the 100% (cells+NDP-MSH at 10 nM) and 0% (cells alone) controls. An EC50 is calculated for each product using the XLFit software.

Another data set has as its target hERG potassium channel (Homo sapiens (Human), UniProt Q12809). As to the kind of experiment: hERG channel test: effect on amplitude of IKr in hERG transfected cells. To be noted: for effect on the amplitude of IKr encoded by hERG (change in percentage relative to the control): hERG transfected human cells; for effect observed on the amplitude of IKr (in words): 1, 3 and 10 μM; for lengthening the QT time (conclusion from hERG test): under the experimental conditions; for IC50: estimated from 1, 3 and 10 μM, read-out: Estimated IC50 for hERG channel blockade; for concentration from which the decrease of the amplitude of IKr starts: tested at 1, 3 and 10 μM; for decrease of the amplitude of IKr: with 10 μM. As for the experimental part: The object of the study was to track down the inhibition profile of seven selective compounds from human cell lines stably transfected with the gene for expressing the IKr protein of the hERG potassium channel. Several MC1R agonist compounds and especially the compounds of interest in the context of the invention were evaluated. The toxicity evaluation was performed using three increasing concentrations (1, 3 and 10 μM) of 2 hERG transfected cells (no reference compound used) of the following compounds: • Compound 1: N-[(R)-2-[3-(4-hydroxybutoxy)-3-o-tolylazetidin-1-yl]-1-(4-methoxybenzyl)-2-oxoethyl]-3-(1H-imidazol-4-yl)propionamide • Compound 2: (S)-N-[(R)-2-(3-butoxy-3-o-tolylazetidin-1-yl)-1-(4-methoxybenzyl)-2-oxoethyl]-2-hydroxy-3-(1H-imidazol-4-yl)propionamide • Compound 3: 3-(1H-imidazol-4-yl)-N-{(R)-1-(4-methoxybenzyl)-2-oxo-2-[3-o-tolyl-3-(4,4,4-trifluorobutoxy)azetidin-1-yl]ethyl}propionamide • Compound 4: N-[(R)-2-(3-but-2-ynyloxy-3-o-tolylazetidin-1-yl)-1-(4-methoxybenzyl)-2-oxoethyl]-3-(5-methyl-1H-imidazol-4-yl)propionamide • Compound 5: N-[(R)-2-(3-cyclobutylmethoxy-3-o-tolylazetidin-1-yl)-1-(4-methoxybenzyl)-2-oxoethyl]-3-(5-methyl-1H-imidazol-4-yl)propionamide • Compound 6: N-[(R)-2-(3-cyclopropylmethoxy-3-o-tolylazetidin-1-yl)-1-(4-methoxybenzyl)-2-oxoethyl]-3-(5-methyl-1H-imidazol-4-yl)propionamide • Compound 7: N-[(R)-2-(3-butoxy-3-o-tolylazetidin-1-yl)-1-(4-methoxybenzyl)-2-oxoethyl]-3-guanidinopropionamide; bis(trifluoroacetic acid) salt
The effect on the amplitude of IKr encoded by hERG (as the changes in percentages relative to the control) are summarized per compound and per concentration in Table 1 below.

Sequence of hERG potassium channel (Q12809 whole entry): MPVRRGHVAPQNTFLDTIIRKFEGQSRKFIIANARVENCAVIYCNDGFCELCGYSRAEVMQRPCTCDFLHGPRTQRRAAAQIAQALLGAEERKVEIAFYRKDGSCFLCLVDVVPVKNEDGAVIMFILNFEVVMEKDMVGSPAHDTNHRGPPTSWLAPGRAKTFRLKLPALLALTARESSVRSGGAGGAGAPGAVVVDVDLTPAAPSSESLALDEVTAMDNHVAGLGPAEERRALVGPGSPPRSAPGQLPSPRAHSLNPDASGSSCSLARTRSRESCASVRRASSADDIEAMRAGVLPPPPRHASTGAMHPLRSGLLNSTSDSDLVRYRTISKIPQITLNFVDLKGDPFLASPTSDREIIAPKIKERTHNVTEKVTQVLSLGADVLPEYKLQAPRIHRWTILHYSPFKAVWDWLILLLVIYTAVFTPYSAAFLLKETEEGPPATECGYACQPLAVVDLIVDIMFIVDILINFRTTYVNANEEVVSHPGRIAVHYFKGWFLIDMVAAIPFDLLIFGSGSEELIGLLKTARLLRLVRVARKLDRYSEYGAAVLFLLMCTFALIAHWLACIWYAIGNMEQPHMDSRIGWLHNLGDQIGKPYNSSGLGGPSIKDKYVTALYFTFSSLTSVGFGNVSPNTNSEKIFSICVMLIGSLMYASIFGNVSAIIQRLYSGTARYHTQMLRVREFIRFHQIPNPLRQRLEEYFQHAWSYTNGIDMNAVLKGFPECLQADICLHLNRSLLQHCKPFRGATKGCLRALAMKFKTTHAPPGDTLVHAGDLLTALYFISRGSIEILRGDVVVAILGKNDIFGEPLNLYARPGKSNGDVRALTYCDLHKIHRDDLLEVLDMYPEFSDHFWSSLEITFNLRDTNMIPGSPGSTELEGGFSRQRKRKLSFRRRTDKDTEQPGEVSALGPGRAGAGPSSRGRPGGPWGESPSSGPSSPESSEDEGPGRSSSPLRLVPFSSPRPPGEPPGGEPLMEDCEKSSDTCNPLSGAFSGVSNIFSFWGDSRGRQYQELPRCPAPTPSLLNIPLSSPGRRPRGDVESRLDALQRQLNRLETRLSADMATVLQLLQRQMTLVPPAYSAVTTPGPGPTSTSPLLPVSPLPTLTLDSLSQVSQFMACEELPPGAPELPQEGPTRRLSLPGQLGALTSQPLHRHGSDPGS
Sequence of hMC1R (Q01726 whole entry): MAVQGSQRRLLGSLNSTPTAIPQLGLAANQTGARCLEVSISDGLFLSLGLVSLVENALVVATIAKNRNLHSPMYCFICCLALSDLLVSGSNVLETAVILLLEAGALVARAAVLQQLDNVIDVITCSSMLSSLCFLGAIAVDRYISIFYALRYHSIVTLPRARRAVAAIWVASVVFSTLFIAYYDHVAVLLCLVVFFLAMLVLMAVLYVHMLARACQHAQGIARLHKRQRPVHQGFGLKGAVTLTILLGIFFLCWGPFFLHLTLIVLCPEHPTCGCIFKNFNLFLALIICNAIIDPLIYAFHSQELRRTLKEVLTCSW
Sequence of hMC4R (P32245 whole entry): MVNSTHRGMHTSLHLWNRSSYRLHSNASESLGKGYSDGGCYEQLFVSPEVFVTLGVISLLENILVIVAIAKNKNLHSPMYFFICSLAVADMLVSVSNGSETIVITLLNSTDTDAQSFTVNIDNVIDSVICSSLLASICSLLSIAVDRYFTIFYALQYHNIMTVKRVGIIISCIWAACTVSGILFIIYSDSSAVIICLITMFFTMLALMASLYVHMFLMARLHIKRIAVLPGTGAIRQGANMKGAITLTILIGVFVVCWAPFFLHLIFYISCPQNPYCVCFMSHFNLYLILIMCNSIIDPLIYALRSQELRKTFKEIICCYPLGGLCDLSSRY

As a reminder, the EC50 is the concentration at which the effect is half-maximal. For `COc1ccc(C[C@@H](NC(=O)CCc2c[nH]cn2)C(=O)N2CC(OCCCCO)(c3ccccc3C)C2)cc1` [Compound 1, N-[(R)-2-[3-(4-hydroxybutoxy)-3-o-tolylazetidin-1-yl]-1-(4-methoxybenzyl)-2-oxoethyl]-3-(1H-imidazol-4-yl)propionamide], the EC50 at hMC4R was 8 µM. At hMC1R, the “melanocortin receptor selectivity (hMC1R versus hMC4R)” value was “hMC1R highly selective” and the EC50 came out at 0.25 µM. On hERG potassium channel, the “cardiotoxic alert on the hERG channel test” value is “do not present any cardiotoxic alert”, the “effect observed on the amplitude of IKr (in words)” value (“effect observed on the amplitude” for short) is “no effect observed” and the “lengthening the QT time (conclusion from hERG test)” value (“lengthening the QT time” for short) is listed as “did not exhibit this characteristic”. In addition, the “effect on the amplitude of IKr encoded by hERG (change in percentage relative to the control)” value at hERG potassium channel (1 μM) was −1.5 ± 2.5%. Besides, the “effect on the amplitude of IKr encoded by hERG (change in percentage relative to the control)” value at hERG potassium channel (3 μM) was −3.0 ± 1.0%. The “effect on the amplitude of IKr encoded by hERG (change in percentage relative to the control)” value on hERG potassium channel (10 μM) was −7.5 ± 3.5%.

As a reminder, the IC50 is the concentration that gives 50% inhibition. As to `CCCCOC1(c2ccccc2C)CN(C(=O)[C@@H](Cc2ccc(OC)cc2)NC(=O)[C@@H](O)Cc2c[nH]cn2)C1` [Compound 2, (S)-N-[(R)-2-(3-butoxy-3-o-tolylazetidin-1-yl)-1-(4-methoxybenzyl)-2-oxoethyl]-2-hydroxy-3-(1H-imidazol-4-yl)propionamide], the results for the “effect on the amplitude of IKr encoded by hERG (change in percentage relative to the control)” value at hERG potassium channel (1 μM), at hERG potassium channel (3 μM) and at hERG potassium channel (10 μM) were “+1.0 ± 1.0%”, −5.0 ± 5.0% and −51.5 ± 6.5%, respectively. Also, the “effect observed on the amplitude” value on hERG potassium channel is on record as “modified but only at the highest concentration”. For the same compound, the IC50 on hERG potassium channel was 10 µM. The “lengthening the QT time” value on hERG potassium channel was “more substantially”.

For `COc1ccc(C[C@@H](NC(=O)CCc2c[nH]cn2)C(=O)N2CC(OCCCC(F)(F)F)(c3ccccc3C)C2)cc1` [Compound 3, 3-(1H-imidazol-4-yl)-N-{(R)-1-(4-methoxybenzyl)-2-oxo-2-[3-o-tolyl-3-(4,4,4-trifluorobutoxy)azetidin-1-yl]ethyl}propionamide], the “effect on the amplitude of IKr encoded by hERG (change in percentage relative to the control)” value on hERG potassium channel (1 μM) was −16.0 ± 3.0%. The “effect on the amplitude of IKr encoded by hERG (change in percentage relative to the control)” value at hERG potassium channel (3 μM) is given as −42.5 ± 5.5%. For the same compound, the “effect on the amplitude of IKr encoded by hERG (change in percentage relative to the control)” value on hERG potassium channel (10 μM) is listed as −86.5 ± 3.5%. Further, on hERG potassium channel, the “effect observed on the amplitude” value is given as “dose effect observed”, the IC50 was more than 3 µM, the “concentration from which the decrease of the amplitude of IKr starts” value (“concentration from which the decrease” below) was found to be 1000 nM and the “lengthening the QT time” value is reported as “more substantially”. Also, the “decrease of the amplitude of IKr” value on hERG potassium channel worked out at 86.5%.

With `CC#CCOC1(c2ccccc2C)CN(C(=O)[C@@H](Cc2ccc(OC)cc2)NC(=O)CCc2nc[nH]c2C)C1` [Compound 4, N-[(R)-2-(3-but-2-ynyloxy-3-o-tolylazetidin-1-yl)-1-(4-methoxybenzyl)-2-oxoethyl]-3-(5-methyl-1H-imidazol-4-yl)propionamide], the “effect on the amplitude of IKr encoded by hERG (change in percentage relative to the control)” value on hERG potassium channel (1 μM) is −20.5 ± 9.5%. For the same compound, the “effect on the amplitude of IKr encoded by hERG (change in percentage relative to the control)” value at hERG potassium channel (3 μM) was −22.0 ± 10.0%. In addition, the “effect on the amplitude of IKr encoded by hERG (change in percentage relative to the control)” value at hERG potassium channel (10 μM) is recorded as −42.5 ± 2.5%. For the same compound, at hERG potassium channel, the “effect observed on the amplitude” value is “dose effect observed”, the concentration for half-maximal inhibition (IC50) was more than 10 µM, the “concentration from which the decrease” value came to 3000 nM and the “lengthening the QT time” value is recorded as “more substantially”. Moreover, the “decrease of the amplitude of IKr” value at hERG potassium channel is recorded as 42.5%.

Regarding `COc1ccc(C[C@@H](NC(=O)CCc2nc[nH]c2C)C(=O)N2CC(OCC3CCC3)(c3ccccc3C)C2)cc1` [Compound 5, N-[(R)-2-(3-cyclobutylmethoxy-3-o-tolylazetidin-1-yl)-1-(4-methoxybenzyl)-2-oxoethyl]-3-(5-methyl-1H-imidazol-4-yl)propionamide], the “effect on the amplitude of IKr encoded by hERG (change in percentage relative to the control)” value on hERG potassium channel (1 μM) is listed as −17.0 ± 4.0%. At hERG potassium channel (3 μM), the “effect on the amplitude of IKr encoded by hERG (change in percentage relative to the control)” value was −49.5 ± 16.5%. For the same compound, at hERG potassium channel (10 μM), the “effect on the amplitude of IKr encoded by hERG (change in percentage relative to the control)” value is given as −76.5 ± 17.5%. Also, on hERG potassium channel, the “effect observed on the amplitude” value was “dose effect observed”, the IC50 is 3 µM, the “concentration from which the decrease” value was 1000 nM and the “lengthening the QT time” value is reported as “more substantially”. For the same compound, at hERG potassium channel, the “decrease of the amplitude of IKr” value turned out to be 76.5%.

On to `COc1ccc(C[C@@H](NC(=O)CCc2nc[nH]c2C)C(=O)N2CC(OCC3CC3)(c3ccccc3C)C2)cc1` [Compound 6, N-[(R)-2-(3-cyclopropylmethoxy-3-o-tolylazetidin-1-yl)-1-(4-methoxybenzyl)-2-oxoethyl]-3-(5-methyl-1H-imidazol-4-yl)propionamide], for which, at hMC4R, the EC50 turned out to be 4.5 µM. Further, on hMC1R, the “melanocortin receptor selectivity (hMC1R versus hMC4R)” value is “hMC1R highly selective” and the EC50 was 0.07 µM. In addition, on hERG potassium channel, the “cardiotoxic alert on the hERG channel test” value is listed as “do not present any cardiotoxic alert”, the “effect observed on the amplitude” value is listed as “no effect observed” and the “lengthening the QT time” value is listed as “did not exhibit this characteristic”. Further, the “effect on the amplitude of IKr encoded by hERG (change in percentage relative to the control)” value on hERG potassium channel (1 μM) is −5.0 ± 3.0%. The “effect on the amplitude of IKr encoded by hERG (change in percentage relative to the control)” value on hERG potassium channel (3 μM) is given as −9.5 ± 3.5%. The “effect on the amplitude of IKr encoded by hERG (change in percentage relative to the control)” value on hERG potassium channel (10 μM) was −16.0 ± 7.0%.

Take `CCCCOC1(c2ccccc2C)CN(C(=O)[C@@H](Cc2ccc(OC)cc2)NC(=O)CCNC(=N)N)C1` [Compound 7, N-[(R)-2-(3-butoxy-3-o-tolylazetidin-1-yl)-1-(4-methoxybenzyl)-2-oxoethyl]-3-guanidinopropionamide]: the “effect on the amplitude of IKr encoded by hERG (change in percentage relative to the control)” value on hERG potassium channel (1 μM) is −19.5 ± 4.5%. In addition, at hERG potassium channel (3 μM), the “effect on the amplitude of IKr encoded by hERG (change in percentage relative to the control)” value is −29.5 ± 9.5%. Further, the “effect on the amplitude of IKr encoded by hERG (change in percentage relative to the control)” value on hERG potassium channel (10 μM) is given as −33.0 ± 12.0%. Also, at hERG potassium channel, the “effect observed on the amplitude” value is reported as “slight dose effect observed”, the IC50 was more than 10 µM, the “concentration from which the decrease” value came out at 1000 nM and the “lengthening the QT time” value is reported as “slightly”. Further, at hERG potassium channel, the “decrease of the amplitude of IKr” value is given as 33%.

The record behind these values is US9353083B2, “Oxazetidine derivatives, process for preparing them and use in human medicine and in cosmetics” (GALDERMA RESEARCH & DEVELOPMENT, priority 2011, dated 2016).
